US11472803B2, “7-substituted 1-aryl-naphthyridine-3-carboxylic acid amides and use thereof” (Bayer Aktiengesellschaft, priority 2016, dated 2022)

Target: T1, human M2 receptor (Homo sapiens, UniProt P08172)
T1 construct: expressed in transfected cells; host or cells: CHO-DUKX (CHO-DUKX-M2-GIRK)
T1 sequence (P08172 1-466): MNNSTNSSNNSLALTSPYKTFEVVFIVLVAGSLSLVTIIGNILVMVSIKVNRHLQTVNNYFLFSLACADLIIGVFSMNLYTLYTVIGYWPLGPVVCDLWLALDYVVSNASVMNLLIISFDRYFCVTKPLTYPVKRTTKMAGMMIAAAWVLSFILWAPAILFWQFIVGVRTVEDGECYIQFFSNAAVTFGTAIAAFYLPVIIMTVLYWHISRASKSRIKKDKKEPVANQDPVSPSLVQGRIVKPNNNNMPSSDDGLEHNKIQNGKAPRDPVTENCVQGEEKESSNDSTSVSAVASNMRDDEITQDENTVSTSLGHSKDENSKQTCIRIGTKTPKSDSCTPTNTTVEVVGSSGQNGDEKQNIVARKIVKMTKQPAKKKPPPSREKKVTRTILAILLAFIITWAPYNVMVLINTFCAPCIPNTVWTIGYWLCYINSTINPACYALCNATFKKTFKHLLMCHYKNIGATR
Assay: Functional M2-GIRK1/4 activation test: allosteric potency (EC50) and efficiency at EC20 acetylcholine
Format: cell-based
Details: CHO-DUKX-M2-GIRK cells; for EC50: voltage-sensitive dye, acetylcholine at EC20, in some cases mean of two or more determinations; for Emax / Efficiency: boosting of the acetylcholine effect at EC20 acetylcholine concentration
Method in brief: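 CHO-DUKX cells stably expressing human M2 and GIRK1/4; membrane potential tracked with voltage-sensitive dye at room temperature. Compound added 50 s before acetylcholine at its EC20, then hyperpolarization read 60 s. EC50 (allosteric potency) and efficiency (boost of EC20 ACh effect) from 4-parameter Hill fit.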

Row | Compound | EC50 [nM] | Emax [%] | Efficiency [%]
1 | CCC(NC(=O)c1cn(-c2c(F)cc(F)cc2F)c2nc(N3C[C@@H](O)[C@H](O)C3)c(F)cc2c1=O)C(C)C (single isomer, unassigned) [Example 29] | 2.5 | 100 | 
2 | O=C(N[C@@H](C1CC1)C(F)(F)F)c1cn(-c2c(F)cc(F)cc2Cl)c2nc(N3C[C@@H](O)[C@H](O)C3)c(F)cc2c1=O (single isomer, unassigned) [Example 51] | 36 | 81 | 
3 | CC[C@H](NC(=O)c1cn(-c2ncc(F)cc2F)c2nc(N3CC[C@H](O)C3)c(F)cc2c1=O)C(F)(F)F [Example 152, 1-(3,5-Difluoropyridin-2-yl)-6-fluoro-7-[(3S)-3-hydroxypyrrolidin-1-yl]-4-oxo-N-[(2S)-1,1,1-trifluorobutan-2-yl]-1,4-dihydro-1,8-naphthyridine-3-carboxamide] | 53 | 100 | 
4 | O=C(N[C@@H](C1CC1)C(F)(F)F)c1cn(-c2c(F)cc(F)cc2F)c2nc(N3CCCC3)c(F)cc2c1=O [Example 231, N-[(1S)-1-cyclopropyl-2,2,2-trifluoroethyl]-6-fluoro-4-oxo-7-(pyrrolidin-1-yl)-1-(2,4,6-tri-fluorophenyl)-1,4-dihydro-1,8-naphthyridine-3-carboxamide] | 4.8 | 82 | 
5 | O=C(N[C@@H](C1CC1)C(F)(F)F)c1cn(-c2c(F)cc(F)cc2Cl)c2nc(N3CC(CO)(CO)C3)c(F)cc2c1=O [Example 69, 7-[3,3-Bis(hydroxymethyl)azetidin-1-yl]-1-(2-chloro-4,6-difluorophenyl)-N-[(1S)-1-cyclopropyl-2,2,2-trifluoroethyl]-6-fluoro-4-oxo-1,4-dihydro-1,8-naphthyridine-3-carboxamide] | 5.9 | 100 | 
6 | O=C(NC(C1CC1)C(F)(F)C(F)(F)F)c1cn(-c2c(F)cc(F)cc2F)c2nc(N3CC4(COC4)C3)c(F)cc2c1=O (single isomer, unassigned) [Example 204, N-[1-cyclopropyl-2,2,3,3,3-pentafluoropropyl]-6-fluoro-7-(2-oxa-6-azaspiro[3.3]hept-6-yl)-4-oxo-1-(2,4,6-trifluorophenyl)-1,4-dihydro-1,8-naphthyridine-3-carboxamide] | 17 | 97 | 
7 | CC(NC(=O)c1cn(-c2ncc(F)cc2F)c2nc(N3CC[C@H](O)C3)c(F)cc2c1=O)C(F)(F)C(F)(F)F (single isomer, unassigned) [Example 128] | 9.8 | 90 | 
8 | Cc1cc(F)cc(C)c1-n1cc(C(=O)N[C@@H](C2CC2)C(F)(F)F)c(=O)c2cc(F)c(N3C[C@@H](O)[C@H](O)C3)nc21 [Example 175, N-[(1S)-1-Cyclopropyl-2,2,2-trifluoroethyl]-7-[(3R,4R)-3,4-dihydroxypyrrolidin-1-yl]-6-fluoro-1-(4-fluoro-2,6-dimethylphenyl)-4-oxo-1,4-dihydro-1,8-naphthyridine-3-carboxamide] | 73 | 83 | 
9 | CC[C@@H](NC(=O)c1cn(-c2c(F)cc(F)cc2F)c2nc(N3C[C@H](O)[C@@H](O)C3)c(F)cc2c1=O)C(F)(F)F [Example 156, 7-[(3S,4S)-3,4-Dihydroxypyrrolidin-1-yl]-6-fluoro-4-oxo-N-[(2R)-1,1,1-trifluorobutan-2-yl]-1-(2,4,6-trifluorophenyl)-1,4-dihydro-1,8-naphthyridine-3-carboxamide] | 11 | 100 | 
10 | CC(C)(NC(=O)c1cn(-c2c(F)cc(F)cc2F)c2nc(N3CCOCC3)c(F)cc2c1=O)C(F)(F)F [Example 149, 6-Fluoro-7-(morpholin-4-yl)-4-oxo-N-(1,1,1-trifluoro-2-methylpropan-2-yl)-1-(2,4,6-trifluorophenyl)-1,4-dihydro-1,8-naphthyridine-3-carboxamide] | 21 | 92 | 
11 | CCC(NC(=O)c1cn(-c2c(F)cc(F)cc2F)c2nc(N3CC[C@H](O)C3)c(F)cc2c1=O)C(C)C (single isomer, unassigned) [Example 117] | 6.9 | 99 | 
12 | CC(C)C(NC(=O)c1cn(-c2c(F)cc(F)cc2F)c2nc(N3CC[C@H](O)C3)c(F)cc2c1=O)C(F)(F)F (mixture of isomers) [Example 126, 6-Fluoro-7-[(3S)-3-hydroxypyrrolidin-1-yl]-4-oxo-N-[1,1,1-trifluoro-3-methylbutan-2-yl]-1-(2,4,6-trifluorophenyl)-1,4-dihydro-1,8-naphthyridine-3-carboxamide] | 3.9 | 97 | 
13 | CCC(COC(F)(F)F)NC(=O)c1cn(-c2c(F)cc(F)cc2F)c2nc(N3C[C@@H](O)[C@@H](O)C3)c(F)cc2c1=O (single isomer, unassigned) [Example 96] | 16 | 96 | 
14 | CC[C@@H](NC(=O)c1cn(-c2c(F)cc(F)cc2F)c2nc(N3C[C@@H](O)[C@@H](O)C3)c(F)cc2c1=O)C(F)(F)F [Example 155, 7-[(3R,4S)-3,4-Dihydroxypyrrolidin-1-yl]-6-fluoro-4-oxo-N-[(2R)-1,1,1-trifluorobutan-2-yl]-1-(2,4,6-trifluorophenyl)-1,4-dihydro-1,8-naphthyridine-3-carboxamide] | 11 | 100 | 
15 | CC[C@H](NC(=O)c1cn(-c2c(F)cc(F)cc2F)c2nc(N3C[C@@H](O)[C@H](OC(C)=O)C3)c(F)cc2c1=O)C(F)(F)F [Example 35, (3R,4R)-1-[3-Fluoro-5-oxo-6-{[(2S)-1,1,1-trifluorobutan-2-yl]carbamoyl}-8-(2,4,6-trifluoro-phenyl)-5,8-dihydro-1,8-naphthyridin-2-yl]-4-hydroxypyrrolidin-3-yl acetate] | 2.9 | 100 | 
16 | CC(C)(NC(=O)c1cn(-c2c(F)cc(F)cc2F)c2nc(N3C[C@@H](O)[C@@H](O)C3)c(F)cc2c1=O)C(F)(F)F [Example 124, 7-[(3R,4S)-3,4-Dihydroxypyrrolidin-1-yl]-6-fluoro-4-oxo-N-(1,1,1-trifluoro-2-methylpropan-2-yl)-1-(2,4,6-trifluorophenyl)-1,4-dihydro-1,8-naphthyridine-3-carboxamide] | 18 | 100 | 
17 | O=C(NCC(F)(F)F)c1cn(-c2c(F)cc(F)cc2Cl)c2nc(N3C[C@@H](O)[C@H](O)C3)c(F)cc2c1=O (single isomer, unassigned) [Example 223] | 26 |  | 86
18 | CCC(NC(=O)c1cn(-c2c(F)cc(F)cc2F)c2nc(N3C[C@@H](O)[C@H](O)C3)c(F)cc2c1=O)C(C)C (single isomer, unassigned) [Example 30] | 2.6 |  | 100
19 | CN(C)c1nc2c(cc1F)c(=O)c(C(=O)NC(C)(C)CC(F)(F)F)cn2-c1c(F)cc(F)cc1F [Example 63, 7-(Dimethylamino)-6-fluoro-4-oxo-N-(4,4,4-trifluoro-2-methylbutan-2-yl)-1-(2,4,6-trifluoro-phenyl)-1,4-dihydro-1,8-naphthyridine-3-carboxamide] | 3.9 | 92 | 
20 | O=C(N[C@@H](C1CC1)C(F)(F)F)c1cn(-c2ncc(F)cc2F)c2nc(N3CC[C@H](O)C3)c(F)cc2c1=O [Example 153, N-[(1S)-1-Cyclopropyl-2,2,2-trifluoroethyl]-1-(3,5-difluoropyridin-2-yl)-6-fluoro-7-[(3S)-3-hydroxypyrrolidin-1-yl]-4-oxo-1,4-dihydro-1,8-naphthyridine-3-carboxamide] | 48 | 99 | 
